Source: patent US12157755B2, “CD73 inhibitor, preparation method therefor and application thereof” (Abbisko Therapeutics Co., Ltd., priority 2019, dated 2024)

Columns and labels:
CD73 = target: T1, CD73 (Homo sapiens, UniProt P21589); assay: In vitro enzymatic activity against CD73 (malachite green test using soluble CD73); type: biochemical; conditions: soluble CD73 36 ng/mL, 50 μM AMP, 30 minutes at 25° C.
T1 construct: purchased R&D systems 5795-EN-010
T1 sequence (P21589 27-547 limits assumed): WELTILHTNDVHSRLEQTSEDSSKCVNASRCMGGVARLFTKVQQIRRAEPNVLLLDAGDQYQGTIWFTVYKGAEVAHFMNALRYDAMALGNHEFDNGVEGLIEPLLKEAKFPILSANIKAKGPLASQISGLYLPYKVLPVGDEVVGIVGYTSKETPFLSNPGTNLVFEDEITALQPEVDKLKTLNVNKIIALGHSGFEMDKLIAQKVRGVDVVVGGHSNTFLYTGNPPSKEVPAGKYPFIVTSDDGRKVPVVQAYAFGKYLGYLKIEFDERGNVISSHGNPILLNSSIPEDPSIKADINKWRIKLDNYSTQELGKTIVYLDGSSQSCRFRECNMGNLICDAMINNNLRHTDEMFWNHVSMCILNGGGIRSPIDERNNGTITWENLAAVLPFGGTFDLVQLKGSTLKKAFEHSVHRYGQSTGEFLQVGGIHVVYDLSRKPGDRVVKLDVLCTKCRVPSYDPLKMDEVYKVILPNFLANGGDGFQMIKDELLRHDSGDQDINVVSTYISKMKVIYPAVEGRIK
Experimental: The malachite green test using soluble CD73, which is synthesized in vitro was used in the present invention to determine the characteristics of inhibitory activity of the compounds against CD73. The specific experimental procedures were as following:
1. The enzyme reaction in this experiment was carried out in 384-well plates, and CD73 (R&D systems #5795-EN-010) at a concentration of 36 ng/mL, the compounds at different concentrations and 50 μM AMP were incubated for 30 minutes at 25° C. in a 40 uL reaction system (consisting of 25 mM Tris pH 7.5, 5 mM MgCl2, and 0.005% Tween-20);
2. Then, 10 μL of malachite green solution (Sigma) was added to each well to terminate the reaction;
3. The concentration of resulting inorganic phosphate was determined according to the instructions of the reagent manufacturer;
4. The enzymatic activity of CD73 was calculated based on the concentration of the product, and then IC50 values were determined by non-linear regression analysis of the inhibition percentage of the compounds of the present invention at different concentrations.

[1] = target: T2, CD73 enzymatic activity expressed on the cell surface of MDA-MB-231 cells (Homo sapiens, UniProt P21589); assay: Inhibition of CD73 enzymatic activity on the cell surface (Cell Titer Glo (CTG) experiment), MDA-MB-231 cells; type: cell-based; conditions: MDA-MB-231 cells endogenously expressing CD73, AMP, 37° C. for 2 hours, CTG readout; read-out: Cellular activity IC50
T2 construct: Human breast cancer cells MDA-MB-231 that endogenously express CD73 were used; host or cells: MDA-MB-231
T2 sequence (P21589 27-549): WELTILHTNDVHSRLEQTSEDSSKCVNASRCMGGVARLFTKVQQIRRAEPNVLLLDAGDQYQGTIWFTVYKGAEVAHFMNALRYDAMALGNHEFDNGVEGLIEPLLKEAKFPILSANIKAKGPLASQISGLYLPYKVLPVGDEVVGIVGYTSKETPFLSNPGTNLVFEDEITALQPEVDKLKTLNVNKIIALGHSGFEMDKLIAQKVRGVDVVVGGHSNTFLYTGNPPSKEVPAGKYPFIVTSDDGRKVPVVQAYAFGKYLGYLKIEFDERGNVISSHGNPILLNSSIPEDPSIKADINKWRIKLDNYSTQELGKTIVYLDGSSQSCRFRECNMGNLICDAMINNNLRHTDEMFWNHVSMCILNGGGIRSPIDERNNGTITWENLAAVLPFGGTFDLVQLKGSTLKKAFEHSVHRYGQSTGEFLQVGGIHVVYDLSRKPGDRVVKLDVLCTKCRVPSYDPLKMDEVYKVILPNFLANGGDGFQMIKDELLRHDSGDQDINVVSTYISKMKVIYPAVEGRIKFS
Experimental: Human breast cancer cells MDA-MB-231 that endogenously express CD73 were used in the present invention to evaluate the inhibition of the compound against the CD73 enzymatic activity expressed on the cell surface. The cells used were from the Cell Bank of the Chinese Academy of Sciences. The specific experimental procedures were as follows:
1. Before the test, MDA-MB231 cells were seeded to a 96-well plate at 20000 cells/well;
2. In RPMI1640, 10% fetal bovine serum (Gibco, 10099-141), placed in a 5% CO2 incubator at 37° C. overnight (the cells were washed three times by using a serum-free RPMI medium right before the test):
3. 50 μl of serum-free media containing the compounds at different concentrations were added to the cells and incubated for 15 minutes;
4. 25 μL of 1.2 mM AMP was added for incubation at 37° C. for 2 hours, 25 μL of supernatant was then collected from the cells and mix with 25 μL of 100 μM ATP, and then the concentration of AMP in the samples was determined by CTG (Promega, #G7573);
5. Then, a reduction ratio of the substrate AMP level in the cell culture supernatant collected after the reaction was quantitatively determined to evaluate the inhibitory effects of the examples of the present invention and the positive compounds against the CD73 enzymatic activity on the cell surface;
6. Finally, the concentration of the compound leading to half maximal inhibition of enzymatic activity (IC50) was determined using a four-parameter non-linear logistic model curve fit in Graphpad Prism.

Structure (SMILES)	IC50 (CD73)	IC50 [1]
C[C@H](Nc1nc(Cl)nc2c1cnn2[C@@H]1O[C@H](COP(=O)(O)CP(=O)(O)O)[C@@H](O)[C@H]1O)c1ccc(S(F)(F)(F)(F)F)cc1 [Example 2, (((((2R,3S,4R,5R)-5-(6-chloro-4-(((S)-1-(4-(pentafluoro-λ^6-sulfanyl)phenyl)ethyl)amino)-1H-pyrazolo[3,4-d]pyrimidin-1-yl)-3,4-dihydroxytetra-hydrofuran-2-yl)methoxy)(hydroxy)phosphoryl)methyl)phosphonic acid]	20.6 nM	0.73 nM
C[C@H](Nc1cc(Cl)nc2c1cnn2[C@@H]1O[C@H](COP(=O)(O)CP(=O)(O)O)[C@@H](O)[C@H]1O)c1ccc(S(F)(F)(F)(F)F)cc1 [Example 6, (((((2R,3S,4R,5R)-5-(6-chloro-4-(((S)-1-(4-(pentafluoro-λ^6-sulfanyl)phenyl)ethyl)amino)-1H-pyrazolo[3,4-b]pyridin-1-yl)-3,4-dihydroxytetrahydrofuran-2-yl)methoxy)(hydroxy)phosphoryl)methyl) phosphonic acid]	2.4 nM	0.302 nM
CN(c1cc(Cl)nc2c1cnn2[C@@H]1O[C@H](COP(=O)(O)CP(=O)(O)O)[C@@H](O)[C@H]1O)[C@@H]1CCc2ccccc21 [Example 15, (((((2R,3S,4R,5R)-5-(6-chloro-4-(((R)-2,3-dihydro-1H-inden-1-yl)(methyl)amino)-1H-pyrazolo[3,4-b]pyridin-1-yl)-3,4-dihydroxytetrahydrofuran-2-yl)methoxy)(hydroxy)phosphoryl)methyl)phosphonic acid]	0.97 nM	0.121 nM
C[C@H](Nc1nc(Cl)nc2c1cnn2[C@@H]1O[C@H](COP(=O)(O)CP(=O)(O)O)[C@@H](O)[C@H]1O)c1ccc(S(F)(F)(F)(F)F)cc1F [Example 4, (((((2R,3S,4R,5R)-5-(6-chloro-4-(((S)-1-(2-fluoro-4-(pentafluoro-λ^6-sulfanyl)phenyl)ethyl)amino)-1H-pyrazolo[3,4-d]pyrimidin-1-yl)-3,4-dihydroxytetrahydrofuran-2-yl)methoxy)(hydroxy)phosphoryl)methyl)phosphonic acid]	23.4 nM	0.9 nM
O=P(O)(O)CP(=O)(O)OC[C@H]1O[C@@H](n2ncc3c(N[C@@H]4CCc5cc(Cl)ccc54)cc(Cl)nc32)[C@H](O)[C@@H]1O [Example 18, (((((2R,3S,4R,5R)-5-(6-chloro-4-(((R)-5-chloro-2,3-dihydro-1H-inden-1-yl)amino)-1H-pyrazolo[3,4-b]pyridin-1-yl)-3,4-dihydroxytetrahydrofuran-2-yl)methoxy)(hydroxy)phosphoryl)methyl)phosphonic acid]	1.67 nM	0.24 nM
C[C@@H](Nc1cc(Cl)nc2c1cnn2[C@@H]1O[C@H](COP(=O)(O)CP(=O)(O)O)[C@@H](O)[C@H]1O)c1ccc(S(F)(F)(F)(F)F)cc1F [Example 11, (((((2R,3S,4R,5R)-5-(6-chloro-4-(((R)-1-(2-fluoro-4-(pentafluoro-λ^6-sulfanyl)phenyl)ethyl)amino)-1H-pyrazolo[3,4-b]pyridin-1-yl)-3,4-dihydroxytetrahydrofuran-2-yl)methoxy)(hydroxy)phosphoryl)methyl) phosphonic acid]	31.6 nM	0.99 nM

The remaining lines, values ahead:

IC50 (CD73)	IC50 [1]	Structure (SMILES)
0.26 nM	0.151 nM	O=P(O)(O)CP(=O)(O)OC[C@H]1O[C@@H](n2ncc3c(N[C@@H]4CCc5cc(F)c(F)cc54)cc(Cl)nc32)[C@H](O)[C@@H]1O [Example 22, (((((2R,3S,4R,5R)-5-(6-chloro-4-(((R)-5,6-difluoro-2,3-dihydro-1H-inden-1-yl)amino)-1H-pyrazolo[3,4-b]pyridin-1-yl)-3,4-dihydroxytetrahydrofuran-2-yl)methoxy)(hydroxy)phosphoryl)methyl)phosphonic acid]
15 nM	0.71 nM	O=P(O)(O)CP(=O)(O)OC[C@H]1C[C@@H](c2ccc3c(N[C@H]4CCc5ccc(F)cc54)nc(Cl)nn23)[C@H](O)[C@@H]1O [Example 29, (((((1R,2R,3S,4S)-4-(2-chloro-4-(((S)-6-fluoro-2,3-dihydro-1H-inden-1-yl)amino)pyrrolo[2,1-f][1,2,4]triazin-7-yl)-2,3-dihydroxycyclopentyl)methoxy)(hydroxy)phosphoryl)methyl)phosphonic acid]
48.6 nM	0.95 nM	O=P(O)(O)CP(=O)(O)OC[C@H]1C[C@@H](c2ccc3c(N[C@H]4CCc5cc(F)c(F)cc54)nc(Cl)nn23)[C@H](O)[C@@H]1O [Example 31, (((((1R,2R,3S,4S)-4-(2-chloro-4-(((S)-5,6-difluoro-2,3-dihydro-1H-inden-1-yl)amino)pyrrolo[2,1-f][1,2,4]triazin-7-yl)-2,3-dihydroxycyclopentyl)methoxy)(hydroxy)phosphoryl)methyl)phosphonic acid]
> 1000 nM	60 nM	O=P(O)(O)CP(=O)(O)OC[C@H]1C[C@@H](c2ccc3c(N[C@H]4CCc5cc(Cl)ccc54)nc(Cl)nn23)[C@H](O)[C@@H]1O [Example 37, (((((1R,2R,3S,4S)-4-(2-chloro-4-(((S)-5-chloro-2,3-dihydro-1H-inden-1-yl)amino)pyrrolo[2,1-f][1,2,4]triazin-7-yl)-2,3-dihydroxycyclopentyl)methoxy)(hydroxy)phosphoryl)methyl)phosphonic acid]
63 nM	0.743 nM	O=P(O)(O)CP(=O)(O)OC[C@H]1C[C@@H](c2ccc3c(N[C@@H]4CCc5cc(C(F)(F)F)ccc54)nc(Cl)nn23)[C@H](O)[C@@H]1O [Example 39, (((((1R,2R,3S,4S)-4-(2-chloro-4-(((R)-5-(trifluoromethyl)-2,3-dihydro-1H-inden-1-yl)amino)pyrrolo[2,1-f][1,2,4]triazin-7-yl)-2,3-dihydroxycyclopentyl)methoxy)(hydroxy)phosphoryl)methyl)phosphonic acid]
21.7 nM	0.63 nM	O=P(O)(O)CP(=O)(O)OC[C@H]1C[C@@H](c2ccc3c(N[C@@H]4CCc5ccc(C(F)(F)F)cc54)nc(Cl)nn23)[C@H](O)[C@@H]1O [Example 36, (((((1R,2R,3S,4S)-4-(2-chloro-4-(((R)-6-(trifluoromethyl)-2,3-dihydro-1H-inden-1-yl)amino)pyrrolo[2,1-f][1,2,4]triazin-7-yl)-2,3-dihydroxycyclopentyl)methoxy)(hydroxy)phosphoryl)methyl)phosphonic acid]
